Consider five compounds from US9676719B2, “Phenyl derivative” (ONO PHARMACEUTICAL CO., LTD., priority 2013, dated 2017).

Values after ≈ are worked out from the molar mass of the structure shown.

One data set can be described thus: Solubility measurement. In kind it is physicochemical. The conditions noted are these: aqueous buffer, kinetic from dmso stock; second solution of Japanese Pharmacopoeia (pH 6.8), room temperature, stirring 5 hours, LC-MS/MS. The protocol: A solution for obtaining a calibration curve was prepared by diluting a test substance (10 mmol/L, DMSO solution) in acetonitrile and adding acetonitrile containing an internal standard substance (warfarin) to adjust to 0.1, 0.4 and 2 μmol/L. A sample solution was prepared by adding to 495 μL (pH 6.8) of the second solution defined in Japanese Pharmacopoeia (a solution used was obtained by adding water to 250 mL of a 0.2 mol/L potassium dihydrogen phosphate reagent solution and 118 mL of a 0.2 mol/L sodium hydroxide reagent solution to adjust to 1000 mL) 5 μL of a test substance (10 mmol/L, DMSO solution), stirring at room temperature for 5 hours, transferring the obtained solution to a plate with a filter for vacuum filtration, diluting 20 μL of the filtrate with acetonitrile and adding acetonitrile containing the internal standard. The solution for obtaining a calibration curve and the sample solution (5 μL each) were injected to LC-MS/MS (Discovery Max from Thermo Scientific) for quantification (quantification range: 0.1 to 2 μmol/L). The solubility was calculated by multiplying the quantified value by 50. When the quantified value was outside of the quantification range, the solubility was expressed as <5 μmol/L or 100 μmol/L.

For another data set, the target named is T1, rat S1P2 (EDG-5) (Rattus norvegicus, UniProt P47752).
T1 construct: expressed in transfected cells; host or cells: CHO cells (blasticidin S selection)
As to the kind of experiment: S1P2 (EDG-5) antagonistic activity by monitoring the change in intracellular calcium ion concentration (rat). The note with it: CHO cells overexpressing rat S1P2 (EDG-5) gene; suppression of S1P (30 or 300 nM)-induced intracellular calcium increase, Fura2-AM. In kind it is cell-based. The protocol: (§1) Chinese hamster ovary (CHO) cells overexpressing the human S1P2 (EDG-5) gene were cultured in a Ham's F12 medium containing 10% fetal bovine serum (FBS), an antibiotic/antifungal agent and G418. CHO cells overexpressing the rat S1P2 (EDG-5) gene were cultured in a Ham's F12 medium containing 10% FBS, penicillin/streptomycin and blasticidin S. The cultured cells were incubated in a Fura2-AM solution (5 μM) [a Ham's F12 medium containing FBS (10%), HEPES buffer (20 mM, pH 7.2 to 7.5) and probenecid (2.5 mM)] at 37° C. for 60 minutes. The cells were washed twice with a Hanks' balanced saline containing HEPES buffer (20 mM, pH 7.2 to 7.5) and probenecid (2.5 mM) and immersed in the same solution. A plate was mounted on a fluorescence-based drug screening system and the intracellular calcium ion concentration was measured for 30 seconds without stimulation. A test substance (the final concentration of human S1P2: 0.25 nM to 25 μM and the final concentration of rat S1P2: 0.25 nM to 2.5 μM) or a dimethyl sulphoxide (DMSO) solution was added and after 3 minutes S1P (final concentration: 30 or 300 nM) was added and the increase in the intracellular calcium ion concentration before and after the addition of S1P was measured with an interval of 3 seconds (excitation wavelength: 340 nm and 380 nm, fluorescence wavelength: 540 nm).
(§2) The S1P2 (EDG-5) antagonistic activity was calculated as a suppression (%) from the following formula, wherein A is a control value which was a peak value after addition of S1P (final concentration: 30 or 300 nM) in the wells added with DMSO without a test substance and B is an increased amount after addition of S1P in the cells treated with the test substance: [M 1] Suppression (%)=[(A−B)/A]×100
(§3) Comparative compounds used were the compounds disclosed in Example 1 (64) (hereinafter referred to as comparative compound A) and Example 1 (85) (hereinafter referred to as comparative compound B) in Patent Document 3 (WO 2004/002531). The structural formulae of the comparative compounds are shown below respectively.
In general terms: Calcium assays in cells follow changes in intracellular calcium, usually with a dye or a luminescent sensor.

In a further data set the target is T2, human S1P2 (EDG-5) (Homo sapiens, UniProt O95136).
T2 construct: expressed in transfected cells; host or cells: CHO cells (G418 selection)
The data set can be described thus: S1P2 (EDG-5) antagonistic activity by monitoring the change in intracellular calcium ion concentration (human). Format: cell-based. The note with it: CHO cells overexpressing human S1P2 (EDG-5) gene; suppression of S1P (30 or 300 nM)-induced intracellular calcium increase, Fura2-AM. The protocol:
as §1, §2, §3

T1 sequence (P47752 whole entry): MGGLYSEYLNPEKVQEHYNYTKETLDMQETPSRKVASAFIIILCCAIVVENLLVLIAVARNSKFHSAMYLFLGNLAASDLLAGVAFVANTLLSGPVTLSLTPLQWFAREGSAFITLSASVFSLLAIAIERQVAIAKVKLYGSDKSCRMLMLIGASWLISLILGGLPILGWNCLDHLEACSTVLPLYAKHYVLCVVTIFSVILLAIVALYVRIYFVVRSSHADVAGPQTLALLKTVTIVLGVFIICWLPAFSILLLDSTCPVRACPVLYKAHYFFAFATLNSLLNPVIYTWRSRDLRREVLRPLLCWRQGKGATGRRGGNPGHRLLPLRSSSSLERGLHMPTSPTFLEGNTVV
T2 sequence (O95136 whole entry): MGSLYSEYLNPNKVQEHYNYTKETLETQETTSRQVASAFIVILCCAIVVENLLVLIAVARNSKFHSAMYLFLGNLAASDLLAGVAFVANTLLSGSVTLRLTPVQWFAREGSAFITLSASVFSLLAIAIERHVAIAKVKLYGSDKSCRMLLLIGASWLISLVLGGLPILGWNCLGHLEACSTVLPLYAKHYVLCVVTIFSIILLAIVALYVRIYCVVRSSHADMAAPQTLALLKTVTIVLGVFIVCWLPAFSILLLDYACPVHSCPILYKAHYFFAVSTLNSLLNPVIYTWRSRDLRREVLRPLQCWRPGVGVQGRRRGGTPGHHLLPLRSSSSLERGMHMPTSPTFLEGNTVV

By solubility is commonly meant how much of the substance goes into solution per volume. `CCC(CC)CC1(O)CCN(C(=O)Nc2cc(F)cc(C(F)(F)F)c2)CC1` [Comparative compound A, reference compound] registered a solubility at 5 h in “Solubility measurement” of under 5 µM.

What is called IC50 is the point on the concentration scale where inhibition reaches its midpoint. In the case of `CCC(CC)CC1(O)CCN(C(=O)Nc2cccc(Oc3ccc(F)cc3)c2)CC1` [Comparative compound B, reference compound], the 50% inhibitory concentration (IC50) was determined as 27 nM on rat S1P2 (EDG-5) and 1200 nM on human S1P2 (EDG-5). The compound also showed a solubility at 5 h in the data set “Solubility measurement” of under 5 µM.

Consider `CS(=O)(=O)NC(=O)c1ccc(Oc2cc(NC(=O)N3CCC(O)(C4CCCC4)CC3)cc(C(F)(F)F)c2)cc1` [Example 5 (1), 4-cyclopentyl-4-hydroxy-N-[3-{4-[(methylsulphonyl)carbamoyl]phenoxy}-5-(trifluoromethyl)phenyl]-1-piperidine carboxamide], for which the concentration for half-maximal inhibition (IC50) at rat S1P2 (EDG-5) was found to be 9.4 nM; on human S1P2 (EDG-5) it was 4.6 nM. Moreover, the concentration in solution in the data set “Solubility measurement” (solubility at 5 h) came to 72 µM (≈ 41 µg/mL).

Regarding `O=C(Nc1cc(Oc2ccc(C3(C(=O)O)CCCC3)cc2)cc(C(F)(F)F)c1)N1CCC(O)(C2CCCCC2)C1` (stereo not shown) [Example 5 (7), 1-{4-[3-{[(3-cyclohexyl-3-hydroxy-1-pyrrolidinyl)carbonyl]amino}-5-(trifluoromethyl)phenoxy]phenyl}cyclopentanecarboxylic acid], the IC50 on rat S1P2 (EDG-5) was determined as 5.1 nM; on human S1P2 (EDG-5), 8.4 nM. Also, in the data set “Solubility measurement”, the solubility at 5 h is 74 µM (≈ 41.5 µg/mL).

In the case of `CC(C)CC1(O)CCN(C(=O)Nc2cc(C(=O)Oc3ccc(C(C)(C)C(=O)O)cc3)cc(C(F)(F)F)c2)CC1` [Example 8, 2-(4-{[3-{[(4-hydroxy-4-isobutyl-1-piperidinyl)carbonyl]amino}-5-(trifluoromethyl)benzoyl]oxy}phenyl)-2-methylpropanoic acid], the values for the half-maximal inhibitory concentration (IC50) on rat S1P2 (EDG-5) and at human S1P2 (EDG-5) were 3 nM and 7.3 nM, respectively. The compound further showed a solubility at 5 h in the data set “Solubility measurement” of 90 µM (≈ 49.6 µg/mL).
